Values after ≈ are worked out from the molar mass of the structure shown. Where a SMILES comes first, the peptide text is derived from it.
Assays:
MRSA LAC = experiment: Thermal stability by MIC after heat exposure; type: cell-based, Staphylococcus aureus; details: [R4W4] stock exposed to 25, 50, 75 and 100 °C (10 min), then microbroth dilution
Experimental: As per temperature sensitivity, the [R4W4] stock solution (1.15 mg/mL) in a 2 mL Eppendorf microtube was exposed to 100 °C for 10 min. After the thermal exposure, the [R4W4] antibacterial effectiveness was evaluated against MRSA using a microbroth dilution assay, as explained above.

in vitro = details: human, 25% human serum
Experimental: Fresh human serum (4 mL) was centrifuged at 12,500× g for 15 min at 4 °C to remove the lipids. A 25% human serum sample was prepared by adding 375 µL of the human serum supernatant to 1125 µL of RPMI buffer. […] The test sample was incubated in a water bath at 37 °C until a predetermined time interval (0, 1, 2, 4, 6, 8.5, 12, and 20 h). At the time intervals, a 150 µL aliquot test sample was added to a 300 µL cocktail solution [ethanol/formic acid (98:2 v/v) mixture] to cease the reaction. The test samples of aliquots were stored on dry ice for 20 min and then centrifuged at 17,200× g for 20 min. For LC-MS analysis, 150 µL supernatant aliquot test samples were stored at −20 °C [54].
A 20 μL aliquot of each sample was analyzed using an Xterra MS C18 column (3.9 × 150 mm, 5 μm, Waters, MA, USA), Nexera XR, and Prominence Shimadzu LC-20AD XR systems (Shimadzu Corporation, Kyoto, Japan) coupled with Shimadzu LC-MS-2020 mass spectrometer (Shimadzu, OR, USA). A two-component LC system consisted of mobile phase A (0.1% formic acid and 10% acetonitrile in water) and mobile phase B (0.1% formic acid and 100% acetonitrile). The flow rate was set at 1.0 mL/min. The Xterra MS C18 column at 40 °C was allowed to equilibrate with 95% mobile phase A. Peptides were loaded to the column and washed for 5 min with 95% mobile Phase A. Analytes were separated using a binary gradient of 0–95% mobile Phase B for 25 min. […] MS was conducted in multiple reaction monitoring and positive electrospray ionization mode. Fourteen concentrations of [R4W4] prepared by two-fold dilution of 200 μg/mL to 0.39 μg/mL were used to prepare calibration curves. The calibration curves were plotted using weighted (1/×2) least-squares linear regression analysis of peptide mass spectra area under the curve (AUC) versus concentration.

E. coli 25922 = experiment: Checkered board synergy assay with gentamicin; type: cell-based, Escherichia coli
Experimental: An amount of 100 µL of [R4W4] peptide test solution at a final concentration of 512 µg/mL was added to each well A-G column 1 in plate A using a multi-channel pipette. A 50 µL MH Broth was added to micro-plate well A-G columns 2–9. Using a multi-channel pipette, a two-fold serial dilution was performed by removing 50 µL solution from column 1 and was added to column 2 with thorough mixing. The micro-pipette was discarded after each transfer. The last portion after column 9 was discarded. In another microplate, 100 µL MHB was added to well B-G columns 1–11 using a multi-channel pipette. A 200 µL gentamicin test solution 512 µg/mL was added to row A, columns 1–11. A two-fold serial dilution was performed by removing 100 µL from rows A to B. The last portion was discarded. Using eight multi-channel pipettes, 50 µL of gentamicin test solution was transferred in the ordinate column A-G row 1 to the first microplate. The plate was incubated at 37 °C for 18–24 h. The fractional inhibitory concentration (FIC) of the antibacterial agents and the fractional inhibitory concentration index (FICI) of the two antibacterial agents were determined to evaluate the synergistic interaction. The FICI was interpreted as follows: FICI ≤ 0.5, synergy; 0.5 < FICI ≤ 1, partial synergy; 1 ≤ FICI < 4, additive effect or indifference; 4 ≤ FICI antagonism and calculated from the mean values from multiple experiments.

Structure (SMILES): N=C(N)NCCC[C@@H]1NC(=O)[C@H](CCCNC(=N)N)NC(=O)[C@H](CCCNC(=N)N)NC(=O)[C@H](Cc2c[nH]c3ccccc23)NC(=O)[C@H](Cc2c[nH]c3ccccc23)NC(=O)[C@H](Cc2c[nH]c3ccccc23)NC(=O)[C@H](Cc2c[nH]c3ccccc23)NC(=O)[C@H](CCCNC(=N)N)NC1=O [[R4W4]] (cyclo(RRRRWWWW))
- MIC after thermal exposure (MRSA LAC): 4 µg/mL (≈ 2.92 µM)
- half-life at 100 µg/mL (in vitro): > 20 h
- remaining at 1 h, 100 µg/mL (in vitro): ~99%
- remaining at 2 h, 100 µg/mL (in vitro): 93%
- remaining at 6 h, 100 µg/mL (in vitro): 80%
- remaining at 12 h, 100 µg/mL (in vitro): 77%
- remaining at 20 h, 100 µg/mL (in vitro): 76%
- MIC(A+B) ([R4W4] in combination with gentamicin) (E. coli 25922; E. coli 25922, checkered board): 1.5 µg/mL
- MICA ([R4W4] alone) (E. coli 25922; E. coli 25922, checkered board, 37 °C, 18–24 h, mean values from multiple experiments): 32 µg/mL
- FICA (E. coli 25922; E. coli 25922, fractional inhibitory concentration of [R4W4]): 0.05
- reduction in MIC value in combination (E. coli 25922; E. coli, [R4W4] + gentamicin combination versus alone): 2 fold

— PMC11201061, “Mechanistic Study of Antimicrobial Effectiveness of Cyclic Amphipathic Peptide [R4W4] against Methicillin-Resistant Staphylococcus aureus Clinical Isolates” (Antibiotics, 2024)
